Twelve molecules from patent US20250215467A1, “L-THREONINE TRANSALDOLASES AND USES THEREOF” (University of Delaware, priority 2022, published 2025) can be followed below.

The chains are these.
B1: DbTTA: putative TTA, SEQ ID NO: 40, Deltaproteobacteria bacterium (protein, listed as Deltaproteobacteria bacterium)
chain: LTNNRELMDRIGYNLSQGLVSSQHTASLVALFIALHEARLTGKAFAKQVVENARTLASRLAALGVPVLARSDGQFTDNHHFFINLTGVASAPHQMERLLRAHLVVQRGMPFRNVDALRVGVQEVTRRGYGPGEMAQLAEWIASIVIGGADPEVVAPAVQAMAKRFDTIYYTGETVDGKLDLPEIAAPSAKGRWVDYRHLGNDFAMDDTEFSEIRALGAAAGAFPNQTDSTGNVSLRSGARVFVSSSGSYIKHLADGQVVELDAVDPSGELIDYHGAALPSSESLMHFLVYQNVPAGAVVHTHYLLTNQEAADFDVAVIAPQEYASIALARAVAEASKRSRIVYIQKHGLVFWGTDTADCLSQVHNFIHNRPNRRAAEAVYAS
B2: TmTTA: putative TTA, SEQ ID NO: 36, Thermocladium modestius (protein, listed as Thermocladium modestius)
chain: MREEEAIAALSKLRAIMDRHNNWRRRETINLIPSENVMSPLAEYFYLNDMMGRYAEGTIGKRYYQGVSLVDEAEQMLVDLMSSLFSSRFTDVRPISGTVANMAVYHSVAGLGEKIASLPTAAGGHISHNETGAPKAFGLRVSYLPWSQENFNVDVDAARRLIAEERPKLVLLGASLYLFPHPIKELADAAHEVGAVLMHDSAHVLGLIAGHQFPNPLELGADIMTSSTHKTFPGPQGGVIFTTREDLFKEIQRSVFPVMTSNYHLHRYASTIVTAIEMSTYGDEYAATVRSNAKALAEQLHANGLPVVAEEHGFTATHQVAMDVSKFGGGGPIAKALEDANIIVNKNMLPWDKSPVKPSGIRMGVQEMTRMGMGKGEMAAVAELIAKVVIKGVEPSKVKPEVVELRRGFTKVRYGFDLSTLGLNCPCLPLL
B3: SNTTA: putative TTA, SEQ ID NO: 38, Streptomyces sp. NRRL 30471 (protein)
chain: MTSSDDCAASRTAPVAGRAELLALLGEIEKEQRINEAAVNLVPSENRISPWAGAPLRTDFYNRYFFNDSLDPQGWQFRGGEGIGRLEKELALPALRRLGRADHVNIRPVSGMSAMLVVLLGLGGEPGDGVVCVDAETGGHYATGRQIAMLGRRPLPVRVVAGRVDLDALRTALTSCHVPLVYLDLQNSLWELDVAGVAEVIARTSPRTVLHVDCSHTLGLILGGSHKNPLDLGADTTGGSTHKTFPGPQKGVLFTRDENLSRKIRDAQFFTISSHHFAETLALALAAAEFEHFGAAYSRQVLINARAFAHRLRERGFGVVEGGPQLTDTHQVWVRLPLEESADAFSAQLASLGIRVNVQTELPDIPEPALRLGVSEITLNGGREPAMETLAEIFALVRAGEATKAVDLFQVLPHEMGEPYFFTGLPQEAGLFHG
modifications: Streptomyces sp. NRRL 30471
B4: StTTA: TTA, SEQ ID NO: 35, Streptomyces (multi-species), first 36 N-terminal amino acids removed (protein)
chain: GVWAGDRVAQVLERLASDFVLDNTYREQHLSLTASENYPSKLVRMLGAGLQGGFYEFAPPYPAEAGEWAFPDSGANASLVGKLTGIGRQLFEAATFDWRPNGGSVAEQAVLLGTCGRGDGFVHFAHKDGGHFALESLAGAAGVNTYHLPMVDRTLLIDVDRLATLCAEHPEIKLVILDQSFKLRWQPLAQIRAALPEGVFLAYDASHDGALIAGGVLPQPTLLGADAVHGNTHKTIAGPQKAYIAFRDAEHPKLRAVSDWVCPQMQSNSHAELIAPMYVALSEVALYGHAYARQILANAQALAHGLHEEGVRVSGESFGFTETHQVHVVTGSAADALRLSLGELAQAGIRTTNIEVPGANGLHGLRLGVQAMTRRGLREPQMREVARLVAKVVLRRAEPAAVRAEVADLLQHHPLDQLAYSFDSYVDSPAAARLLGEVFR
modifications: Streptomyces (multi-species)
B5: NoTTA: putative TTA, SEQ ID NO: 39, Nocardia otitidiscaviarum (protein, listed as Nocardia otitidiscaviarum)
chain: MNTFDILEQLARYEVGTSRRLHLIASENPLDSDTRVPYMLAGTLARYAFGEPGQPNWAWPGRETLIDLEADTAAALGALLGADHVNLRPTSGLSAMTVALSALAEHAGDRATVLSLAESDGGHGSTGFMARRFGLDWQRMPADPRTGVVDLDALARQARSARGPLVLYLDAFMARFPFDLTGIRGAVGDSALIHYDGSHPLGLIAGGRFQNPLAEGADSLGGSVHKTWPGPVGKGIIATNDSALASRFDTHAAGWISHHHPADLAALALSTAWMEQHAGDYATAVIANAVQLADELADGGLSICADDRGATASHQVWVDIAPICPAPVAAQRLYDAGIVVNAIAIPGLAEPGLRLGVQELTRWGLDRDGMTVLTWVLTQLLVHNAATAVVAPQMEALRTGLTLPEDRHGLEGFLRACDPQEVSVA

One assay has as its system ObiH. In words: TTA-ADH coupled assay, ObiH screened on aromatic aldehyde substrates. The format is biochemical, Pseudomonas fluorescens. Particulars: 0.25-1 mM aldehyde, 100 mM L-Thr, 0.25 μM purified TTA, 30° C. How it is done: (§1) High-throughput screening of purified TTAs was performed with a TTA-ADH coupled assay using purified TTA and commercially available alcohol dehydrogenase from S. cerevisiae purchased from MilliporeSigma. Aldehyde stocks were prepared in 50-100 mM solutions in DMSO or acetonitrile. Reaction mixtures were prepared in a 96-well plate with 100 μL of 100 mM phosphate buffer pH 7.5, 0.5 mM NADH, 0.4 mM PLP, 15 mM MgCl2, and 100 mM L-Thr with the addition of 0.25 mM to 1 mM aldehyde depending on the background absorbance at 340 nm (Table 4), 10 U ScADH, and 0.25 μM purified TTA unless otherwise specified. Reactions were initiated with the addition of enzyme. […] The following controls were included for every assay: reaction mixture without aldehyde, without TTA, and without enzyme (TTA or ADH). Rates were calculated by identifying the linear region at the beginning of the kinetic run and converting the depletion in absorbance to the depletion of mM NADH using an NADH standard curve.
To expand our understanding of the TTA enzyme class, we wanted a high-throughput method for rapid screening of multiple enzymes and candidate aldehyde substrates. We began by analyzing a previously reported coupled enzyme assay (FIG. 2a) based on the addition of alcohol dehydrogenase (ADH), which consumes NADH to reduce the co-product acetaldehyde in a manner that can be monitored at 340 nm. Unfortunately, this coupled assay for TTA activity suffers from false positives and confounding variables which we sought to address. […] Second, the characterized TTAs are known to catalyze the decomposition of L-Thr in the absence of an aldehyde substrate, which is an undesired reaction that also generates an acetaldehyde co-product. Another limitation of the TTA-ADH coupled assay is that many of the aromatic aldehyde candidate substrates absorb at the same measurement wavelength (Table 4). Thus, we minimized the impact of the false positives, spectral overlap, and other confounding variables by tuning enzyme and aldehyde concentrations and monitoring the undesired reactions with two controls: (1) lacking aldehyde substrate (“L-Thr”) and (2) lacking TTA (“no TTA”) where only the ADH and substrate are present. Then, we validated the TTA-ADH coupled assay by performing HPLC analysis, using the chemically synthesized β-OH-nsAA standard for the assumed product from 3, over a time course where we observed that the addition of the ScADH improves reaction rates three-fold. As previously reported by others, we were also able to improve β-OH-nsAAs yields when using the ScADH coupled to a co-factor regeneration system. As the last step of verification, we screened the TTA-ADH coupled assay with ObiH before and after photo-treatment, we observed no differences in reaction rate and continued to assay the TTAs without photo-treatment.
Upon assay validation, we hypothesized that we could rapidly probe the activity of ObiH on diverse aldehydes to expand the potential chemical handles of β-OH-nsAAs. We successfully screened ObiH against 16 unique substrates in a single experiment (FIGS. 2b,c). […] Our screen included nine substrates not previously tested with ObiH to our knowledge; activity on seven of these substrates was confirmed with new peak formation via HPLC or LC-MS (FIGS. 3-14). The new substrates include aldehydes that contain amines, conjugatable handles, or larger hydrophobic groups to improve the chemical diversification of β-OH-nsAA products. Our result supported the known general trend that aldehydes containing electron-withdrawing ring substituents are the preferred substrates of ObiH. As expected, the amine-aldehydes were very poor substrates for ObiH, which we hypothesize is because of the strong electron-donating potential of amines. Additionally, one amine-containing substrate (5) absorbed at 340 nm, so it was only tested at low concentrations of 0.25 mM aldehyde (Table 4). […]
Consider `COc1ccc(C=O)cc1` [Aldehyde 9, 4-methoxybenzaldehyde], for which the “activity of ObiH on aldehyde substrate (initial rate, TTA-ADH coupled assay)” value (“activity of ObiH on aldehyde substrate” for short) is reported as “some activity”.
As to `O=Cc1ccc(-c2ccccc2)cc1` [Aldehyde 10, 4-biphenylcarboxaldehyde], the “activity of ObiH on aldehyde substrate” value is “some activity”.
Turning to `O=Cc1ccc(C=O)cc1` [Aldehyde 7, terephthalaldehyde], the “activity of ObiH on aldehyde substrate” value is listed as “activity”.
As for `O=Cc1ccc(B(O)O)cc1` [Aldehyde 13, 4-boronobenzaldehyde], the “activity of ObiH on aldehyde substrate” value is “activity”.
As for `O=Cc1ccc2ccccc2c1` [Aldehyde 12, 2-napthalaldehyde], the “activity of ObiH on aldehyde substrate” value is on record as “some activity”.
Turning to `O=Cc1ccccc1[N+](=O)[O-]` [Aldehyde 3, 2-nitro-benzaldehyde], the “activity of ObiH on aldehyde substrate” value is “validated the activity”.
On the same count and under the same terms, next, `O=CCc1ccc([N+](=O)[O-])cc1` [Aldehyde 15, 4-nitro-phenylacetaldehyde]: “validated the activity”.

System in a further assay: not listed separately
The experiment in a line: TTA-ADH coupled assay, substrate scope of TTAs on aromatic aldehydes. The format is biochemical. The following applies: TTA-ADH coupled assay. On the procedure:
as §1
We specifically selected substrates with ring substituents with different electron withdrawing properties (1, 3, 6, 7, 8), substituent size (12), and aldehyde chain length (15) to compare the activity of the putative TTAs to ObiH. We were also encouraged by the activity of PbTTA and KaTTA on vanillin and protocatechualdehyde which are substrates that would form products like commercially available therapeutic, Droxidopa (FIG. 18).
To explore the possibility that DbTTA and TmTTA are TTAs active on other related aldehydes, we sought to examine their activity with L-Thr and aldehyde substrates with different ring substituent position (2), bulkier, hydrophobic chemistry (10), and aldehyde chain length (14) using the TTA-ADH coupled assay.
Turning to B1, the “TTA activity with L-Thr and aldehydes 2, 10, 14” value was “Neither of these proteins appeared to have any TTA activity”.
Take B2: the “TTA activity with L-Thr and aldehydes 2, 10, 14” value was “Neither of these proteins appeared to have any TTA activity”.

The assay is the same for the next values; noted with them: purified with SUMO tag.
In the case of B3, the “TTA activity on aromatic aldehydes” value was “no TTA activity”.

System in another assay: not listed separately
In words: In vitro assay over 20 h with HPLC analysis (amino acid substrate specificity, diastereomeric excess). The format is biochemical.
Conditions: not given
How it is done: Metabolites of interest were quantified via high-performance liquid chromatography (HPLC) using an Agilent 1260 Infinity model equipped with a Zorbax Eclipse Plus-C18 column. To quantify aldehyde and β-OH-nsAAs, an initial mobile phase of solvent A/B=95/5 was used (solvent A, water+0.1% TFA; solvent B, acetonitrile+0.1% TFA) and maintained for 5 min. A gradient elution was performed (A/B) as follows: gradient from 95/5 to 50/50 for 5-12 min, gradient from 50/50 to 0/100 for 12-13 min, and gradient from 0/100 to 95/5 for 13-14 min. A flow rate of 1 mL min-1 was maintained, and absorption was monitored at 210, 250 and 280 nm.
We performed an in vitro assay over 20 h using 3 as the aldehyde substrate and either L-Thr, Glycine (Gly), or L-Serine (L-Ser) as the candidate amino acid. Since the TTA-ADH coupled assay is specific to L-Thr, we analyzed TTA activity via HPLC with a chemically synthesized β-OH-nsAA standard for the assumed product from 3.
Take B4: the “β-OH-nsAA product formation from 3 and L-Thr” value (from here on “β-OH-nsAA product formation”) was “active”.
For the molecule B5, the “β-OH-nsAA product formation” value is on record as “no product”.
Same read-out and setting: next, B1: “no product”.
For the molecule B2, the “β-OH-nsAA product formation” value is reported as “no product”.
